From patent US12673944B2, “Compounds having inhibitory activity against glucosylceramide synthase or pharmaceutically acceptable salt thereof, processes for preparing the same, and pharmaceutical compositions comprising the same” (YUHAN CORPORATION, priority 2019, dated 2026)
pIC50: −log10 of the molar value. Like-named read-outs stand apart in the source and are kept apart here.

What was measured:
[1] = system: GM1 production in Jurkat cells; assay: cells; assay type: cell-based
[2] = target: T1, glucosylceramide synthase (GCS) (Homo sapiens, UniProt Q16739); assay: GCS enzyme inhibition assay (A549 cell lysate, NBD C6-ceramide, HPLC fluorescence); assay type: biochemical; conditions: inhibitory activity against GCS, 37° C., 90 minutes
T1 construct: The obtained supernatant was used; host or cells: A549 cells (lysate supernatant after sonication)
T1 sequence (Q16739 1-394): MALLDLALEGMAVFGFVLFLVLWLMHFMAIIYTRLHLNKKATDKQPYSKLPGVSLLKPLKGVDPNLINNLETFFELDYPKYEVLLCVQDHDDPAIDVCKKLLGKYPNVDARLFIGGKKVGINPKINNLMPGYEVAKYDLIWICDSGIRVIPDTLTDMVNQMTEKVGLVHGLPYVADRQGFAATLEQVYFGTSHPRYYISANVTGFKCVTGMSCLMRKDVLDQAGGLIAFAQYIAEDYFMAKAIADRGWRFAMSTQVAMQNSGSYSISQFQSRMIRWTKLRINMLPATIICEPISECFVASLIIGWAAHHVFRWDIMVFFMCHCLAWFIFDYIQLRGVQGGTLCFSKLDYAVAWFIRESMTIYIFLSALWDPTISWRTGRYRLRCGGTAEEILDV
Method in brief: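 A549 cell lysate (50 mM HEPES pH 7.3) served as GCS source; reactions ran 90 min at 37° C, were stopped with chloroform/methanol and lipids extracted. Activity taken as GlcCer/(Cer+GlcCer) peak area, normalised between DMSO and ibiglustat controls.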

CC1(C)COc2cc(-c3cccc4cn[nH]c34)ccc2C1NC(=O)O[C@@H]1CN2CCC1CC2 (stereo partly drawn) [Example 178, (S)-quinuclidin-3-yl (7-(1H-indazol-7-yl)-3,3-dimethylchroman-4-yl)carbamate]
pIC50 ([1]; Homo sapiens, Jurkat, 72 h): 8.36
pIC50 [2]: 8.94

O=C(NC1CCOc2ccc(-c3cccc(F)c3)cc21)O[C@@H]1CN2CCC1CC2 (stereo partly drawn) [Example 86, (S)-quinuclidin-3-yl (6-(3-fluorophenyl)chroman-4-yl)carbamate]
pIC50 ([1]; Homo sapiens, Jurkat, 72 h): 6.74
pIC50 [2]: 8.01

O=C(NC1CCOc2ccc(-c3ccccc3C(F)(F)F)cc21)O[C@@H]1CN2CCC1CC2 (stereo partly drawn) [Example 93, (S)-quinuclidin-3-yl (6-(2-(trifluoromethyl)phenyl)chroman-4-yl)carbamate]
pIC50 ([1]; Homo sapiens, Jurkat, 72 h): 7.10
pIC50 [2]: 8.37

COCOc1cccc(-c2ccc3c(c2)OCC(C)(C)C3NC(=O)O[C@@H]2CN3CCC2CC3)c1 (stereo partly drawn) [Example 107, (S)-quinuclidin-3-yl (7-(3-(methoxymethoxy)phenyl)-3,3-dimethylchroman-4-yl)carbamate]
pIC50 ([1]; Homo sapiens, Jurkat, 72 h): 10.00
pIC50 [2]: 8.93

O=C(NC1CCSc2cc(-c3cccc(Cl)c3)ccc21)O[C@@H]1CN2CCC1CC2 (stereo partly drawn) [Example 318, (S)-quinuclidin-3-yl (7-(3-chlorophenyl)thiochroman-4-yl)carbamate]
pIC50 ([1]; Homo sapiens, Jurkat, 72 h): 7.56
pIC50 [2]: 8.89

COc1cccc(OC)c1-c1ccc2c(c1)OCC(C)(C)C2NC(=O)O[C@@H]1CN2CCC1CC2 (stereo partly drawn) [Example 168, (S)-quinuclidin-3-yl (7-(2,6-dimethoxyphenyl)-3,3-dimethylchroman-4-yl)carbamate]
pIC50 ([1]; Homo sapiens, Jurkat, 72 h): 8.69
pIC50 [2]: 8.85

CC1(C)COc2cc(-c3ccc(N4CCOCC4)c(Cl)c3)ccc2C1NC(=O)O[C@@H]1CN2CCC1CC2 (stereo partly drawn) [Example 205, (S)-quinuclidin-3-yl (7-(3-chloro-4-morpholinophenyl)-3,3-dimethylchroman-4-yl)carbamate]
pIC50 ([1]; Homo sapiens, Jurkat, 72 h): 9.60
pIC50 [2]: 9.19

CCOc1cccc(-c2ccc3c(c2)OCCC3NC(=O)O[C@@H]2CN3CCC2CC3)c1 (stereo partly drawn) [Example 21, (S)-quinuclidin-3-yl (7-(3-ethoxyphenyl)chroman-4-yl)carbamate]
pIC50 ([1]; Homo sapiens, Jurkat, 72 h): 8.34
pIC50 [2]: 9.17

O=C(NC1CCOc2cc(-c3ccc(OC(F)F)cc3)ccc21)O[C@@H]1CN2CCC1CC2 (stereo partly drawn) [Example 32, (S)-quinuclidin-3-yl (7-(4-(difluoromethoxy)phenyl)chroman-4-yl)carbamate]
pIC50 ([1]; Homo sapiens, Jurkat, 72 h): 7.31
pIC50 [2]: 8.48

CSc1ccc(-c2ccc3c(c2)C(NC(=O)O[C@@H]2CN4CCC2CC4)CCO3)cc1 (stereo partly drawn) [Example 97, (S)-quinuclidin-3-yl (6-(4-(methylthio)phenyl)chroman-4-yl)carbamate]
pIC50 ([1]; Homo sapiens, Jurkat, 72 h): 6.30
pIC50 [2]: 7.94

O=C(NC1CCOc2cc(-c3cccc(F)c3)ccc21)O[C@@H]1CN2CCC1CC2 (stereo partly drawn) [Example 1, (S)-quinuclidin-3-yl (7-(3-fluorophenyl)chroman-4-yl)carbamate]
pIC50 ([1]; Homo sapiens, Jurkat, 72 h): 8.77
pIC50 [2]: 8.59

CC(C)(C)c1ccc(-c2ccc3c(c2)OCCC3NC(=O)O[C@@H]2CN3CCC2CC3)cc1 (stereo partly drawn) [Example 26, (S)-quinuclidin-3-yl (7-(4-(tert-butyl)phenyl)chroman-4-yl)carbamate]
pIC50 ([1]; Homo sapiens, Jurkat, 72 h): 7.63
pIC50 [2]: 7.99

COc1cc(-c2ccc3c(c2)OCC(C)(C)C3NC(=O)O[C@@H]2CN3CCC2CC3)ccc1Cl (stereo partly drawn) [Example 177, (S)-quinuclidin-3-yl (7-(4-chloro-3-methoxyphenyl)-3,3-dimethylchroman-4-yl)carbamate]
pIC50 ([1]; Homo sapiens, Jurkat, 72 h): 8.01
pIC50 [2]: 8.86

CC1(C)COc2cc(-c3cccc4ncccc34)ccc2C1NC(=O)O[C@@H]1CN2CCC1CC2 (stereo partly drawn) [Example 219, (S)-quinuclidin-3-yl (3,3-dimethyl-7-(quinolin-5-yl)chroman-4-yl)carbamate]
pIC50 ([1]; Homo sapiens, Jurkat, 72 h): 8.12
pIC50 [2]: 8.65

CC1(C)COc2cc(-c3cc(F)ccc3F)ccc2C1NC(=O)O[C@@H]1CN2CCC1CC2 (stereo partly drawn) [Example 234, (S)-quinuclidin-3-yl (7-(2,5-difluorophenyl)-3,3-dimethylchroman-4-yl)carbamate]
pIC50 ([1]; Homo sapiens, Jurkat, 72 h): 8.96
pIC50 [2]: 9.40

O=C(NC1CCOc2cc(-c3ccc4c(c3)OC(F)(F)O4)ccc21)O[C@@H]1CN2CCC1CC2 (stereo partly drawn) [Example 36, (S)-quinuclidin-3-yl (7-(2,2-difluorobenzo[d][1,3]dioxol-5-yl)chroman-4-yl)carbamate]
pIC50 ([1]; Homo sapiens, Jurkat, 72 h): 7.96
pIC50 [2]: 8.82

CC1(C)COc2cc(-c3ccccc3)ccc2C1NC(=O)O[C@@H]1CN2CCC1CC2 (stereo partly drawn) [Example 264, (S)-quinuclidin-3-yl (3,3-dimethyl-7-phenylchroman-4-yl)carbamate]
pIC50 ([1]; Homo sapiens, Jurkat, 72 h): 9.15
pIC50 [2]: 9.46

O=C(NC1CCOc2cc(-c3cncc4ccccc34)ccc21)O[C@@H]1CN2CCC1CC2 (stereo partly drawn) [Example 53, (S)-quinuclidin-3-yl (7-(isoquinolin-4-yl)chroman-4-yl)carbamate]
pIC50 ([1]; Homo sapiens, Jurkat, 72 h): 8.58
pIC50 [2]: 8.75

COc1ccc(-c2ccc3c(c2)OCC(C)(C)C3NC(=O)O[C@@H]2CN3CCC2CC3)cc1C(F)(F)F (stereo partly drawn) [Example 188, (S)-quinuclidin-3-yl (7-(4-methoxy-3-(trifluoromethyl)phenyl)-3,3-dimethylchroman-4-yl)carbamate]
pIC50 [1]: 8.34
pIC50 [2]: 9.12

CC1(C)COc2cc(/C=C/c3cccc(F)c3)ccc2C1NC(=O)O[C@@H]1CN2CCC1CC2 (stereo partly drawn) [Example 289, (S)-quinuclidin-3-yl (7-((E)-3-fluorostyryl)-3,3-dimethylchroman-4-yl)carbamate]
pIC50 ([1]; Homo sapiens, Jurkat, 72 h): 8.85
pIC50 [2]: 9.21

COc1cc2c(cc1-c1cc(C)c(OC)c(C)c1)OCC(C)(C)C2NC(=O)O[C@@H]1CN2CCC1CC2 (stereo partly drawn) [Example 365, (S)-quinuclidin-3-yl (6-methoxy-7-(4-methoxy-3,5-dimethylphenyl)-3,3-dimethylchroman-4-yl)carbamate]
pIC50 ([1]; Homo sapiens, Jurkat, 72 h): 7.84
pIC50 [2]: 8.92

CC1(C)COc2cc(-c3cccnc3F)ccc2C1NC(=O)O[C@@H]1CN2CCC1CC2 (stereo partly drawn) [Example 222, (S)-quinuclidin-3-yl (7-(2-fluoropyridin-3-yl)-3,3-dimethylchroman-4-yl)carbamate]
pIC50 ([1]; Homo sapiens, Jurkat, 72 h): 8.18
pIC50 [2]: 9.10

CC1(C)COc2cc(-c3cc4ccccc4o3)ccc2C1NC(=O)O[C@@H]1CN2CCC1CC2 (stereo partly drawn) [Example 183, (S)-quinuclidin-3-yl (7-(benzofuran-2-yl)-3,3-dimethylchroman-4-yl)carbamate]
pIC50 ([1]; Homo sapiens, Jurkat, 72 h): 8.19
pIC50 [2]: 8.91

CC1(NC(=O)O[C@@H]2CN3CCC2CC3)CCOc2cc(-c3ccc4c(c3)OC(F)(F)O4)ccc21 (stereo partly drawn) [Example 307, (S)-quinuclidin-3-yl (7-(2,2-difluorobenzo[d][1,3]dioxol-5-yl)-4-methylchroman-4-yl)carbamate]
pIC50 ([1]; Homo sapiens, Jurkat, 72 h): 8.51
pIC50 [2]: 8.97

Cn1ncc2c(-c3ccc4c(c3)OCCC4NC(=O)O[C@@H]3CN4CCC3CC4)cccc21 (stereo partly drawn) [Example 51, (S)-quinuclidin-3-yl (7-(1-methyl-1H-indazol-4-yl)chroman-4-yl)carbamate]
pIC50 ([1]; Homo sapiens, Jurkat, 72 h): 8.30
pIC50 [2]: 8.99

CC(C)Oc1ccc(-c2cc3c(cc2F)C(NC(=O)O[C@@H]2CN4CCC2CC4)C(C)(C)CO3)cn1 (stereo partly drawn) [Example 348, (S)-quinuclidin-3-yl (6-fluoro-7-(6-isopropoxypyridin-3-yl)-3,3-dimethylchroman-4-yl)carbamate]
pIC50 ([1]; Homo sapiens, Jurkat, 72 h): 9.30
pIC50 [2]: 9.62

CC1(C)COc2cc(-c3ccc4c(c3)OCO4)ccc2C1NC(=O)O[C@@H]1CN2CCC1CC2 (stereo partly drawn) [Example 249, (S)-quinuclidin-3-yl (7-(benzo[d][1,3]dioxol-5-yl)-3,3-dimethylchroman-4-yl)carbamate]
pIC50 ([1]; Homo sapiens, Jurkat, 72 h): 8.40
pIC50 [2]: 9.41

CC1(C)COc2cc(-c3ccc(Cl)cc3)ccc2C1NC(=O)O[C@@H]1CN2CCC1CC2 (stereo partly drawn) [Example 213, (S)-quinuclidin-3-yl (7-(4-chlorophenyl)-3,3-dimethylchroman-4-yl)carbamate]
pIC50 ([1]; Homo sapiens, Jurkat, 72 h): 10.52
pIC50 [2]: 9.11

COc1c(C)cc(-c2cc3c(cc2F)C(NC(=O)O[C@@H]2CN4CCC2CC4)C(C)(C)CO3)cc1C (stereo partly drawn) [Example 346, (S)-quinuclidin-3-yl (6-fluoro-7-(4-methoxy-3,5-dimethylphenyl)-3,3-dimethylchroman-4-yl)carbamate]
pIC50 ([1]; Homo sapiens, Jurkat, 72 h): 8.02
pIC50 [2]: 8.93

CC1(C)COc2cc(-c3ccccc3Cl)ccc2C1NC(=O)O[C@@H]1CN2CCC1CC2 (stereo partly drawn) [Example 169, (S)-quinuclidin-3-yl (7-(2-chlorophenyl)-3,3-dimethylchroman-4-yl)carbamate]
pIC50 ([1]; Homo sapiens, Jurkat, 72 h): 9.60
pIC50 [2]: 9.43

COCOc1cccc(-c2ccc3c(c2)SCCC3NC(=O)O[C@@H]2CN3CCC2CC3)c1 (stereo partly drawn) [Example 321, (S)-quinuclidin-3-yl (7-(3-(methoxymethoxy)phenyl)thiochroman-4-yl)carbamate]
pIC50 ([1]; Homo sapiens, Jurkat, 72 h): 8.44
pIC50 [2]: 9.00

COc1ccccc1-c1ccc2c(c1)OCC(C)(C)C2NC(=O)O[C@@H]1CN2CCC1CC2 (stereo partly drawn) [Example 162, (S)-quinuclidin-3-yl (7-(2-methoxyphenyl)-3,3-dimethylchroman-4-yl)carbamate]
pIC50 ([1]; Homo sapiens, Jurkat, 72 h): 10.70
pIC50 [2]: 9.28

Cc1cccc(-c2ccc3c(c2)OCC(C)(C)C3NC(=O)O[C@@H]2CN3CCC2CC3)c1 (stereo partly drawn) [Example 268, (S)-quinuclidin-3-yl (3,3-dimethyl-7-(m-tolyl)chroman-4-yl)carbamate]
pIC50 ([1]; Homo sapiens, Jurkat, 72 h): 8.85
pIC50 [2]: 9.21
